Columns and labels:
[1] = test system: Lewis Lung Carcinoma Cells (LL2); assay: Syngeneic mouse model of K-Ras mutant NSCLC; assay type: in vivo
Protocol: Lewis Lung Carcinoma Cells (LL2) were purchased from ATCC. These murine NSCLC cells derived from C57BL/6 mice have a heterozygous Kras^G12C mutation (H. Y. Li et al., 2017, Cancer Immunol. Res. 5:767-77; B. Deskin et al., 2020, Translational Oncol. 13:135-45). Eight-9 weeks old, male C57/BL6 mice were inoculated with 1×10^6 LL2 cells in 200 μL PBS that were injected subcutaneously in the right flank. Treatments were initiated immediately after inoculation with LL/2 cells. Control mice were treated with intraperitoneal injections of 50 μL vehicle (DMSO), whereas test mice were treated with either AP-1 or AP-8 at the specified dose levels. Treatments were administered twice daily, 5 days per week for a total of 2 weeks. The clinical predictive value of this mouse model is well established (Kellar A, Egan C, Morris D. Preclinical Murine Models for Lung Cancer: Clinical Trial Applications. Biomed Research International Volume 2015|Article ID 621324|https://doi.org/10.1155/2015/621324).
In the 1st experiment, mice were treated twice daily with intraperitoneal injections of vehicle (50 μL DMSO) (N=10) or AP-1 (125 μg˜5 mg/kg in 50 μL DMSO) (N=7) according to a 5 days on 2 days off weekly schedule for 4 weeks. Mice were monitored daily until tumors became visible on and tumor growth rates were compared between day 16 and day 20 by measuring the size of the tumors with a caliper in three dimensions. Tumor size was expressed as tumor volume in cubic millimeters (mm3). Tumor volumes were calculated using the formula for the volume of a prolate spheroid, V=4/3×3.14×length/2×width/2×depth/2. […] The depicted Whisker plots represent the median and values (Min to Max. Shown all points) for the tumor volume on day 16 (FIG. 11A), day 18 (FIG. 11 FIG. 11B) and day 20 (C), and fold-growth in 48 hours (FIG. 11D; day 18 size: day 16 size) measured in tumors from mice in each group. […] Statistical significance between the two groups is shown by the depicted p-values above the plots were computed using an independent samples T-test.
Similarly, in the 2nd experiment, C57BL/6 mice were inoculated subcutaneously with LL2 cells (1×10^6/inoculum, volume: 200 μL) in the right flank. Mice were treated twice daily with intraperitoneal injections of vehicle (50 μL DMSO) (N=10) or AP-1 (100 μg˜4 mg/kg in 50 μL DMSO) (N=20) according to a 5 days on 2 days off weekly schedule for 2 weeks. Mice were monitored daily until tumors became visible on day 10. Tumor growth was assessed on day 10 and day 14 by measuring the size of the tumors with a caliper in three dimensions. Tumor size was expressed as tumor volume in cubic millimeters (mm^3). Tumor volumes were calculated using the formula for the volume of a prolate spheroid, V=4/3×3.14×length/2×width/2×depth/2. […]
In the 3rd experiment, mice were treated twice daily with intraperitoneal injections of vehicle (50 μL DMSO) (N=10) or AP-1 (125 μg˜5 mg/kg in 50 μL DMSO) (N=18) according to a 5 days on 2 days off weekly schedule for 4 weeks. Mice were monitored daily until tumors became visible on day 13. Tumor growth was re-assessed every other day between day 13 and day 29 by measuring the size of the tumors with a caliper in three dimensions. Tumor size was expressed as tumor volume in cubic millimeters (mm^3). Tumor volumes were calculated using the formula for the volume of a prolate spheroid, V=4/3×3.14×length/2×width/2×depth/2. […]

[2] = test system: NALM-6; assay: MTT cytotoxicity assay, NALM-6; assay type: cell-based, human; details: 48 h, read-out: IC50 against NALM-6
Protocol: (§1) Human B-lineage acute lymphoblastic leukemia (ALL) cell line NALM-6 and T-lineage ALL/lymphoma cell line MOLT-3 were obtained from American Type Culture Collection (Manassas, Va.). Cell lines were propagated in RPMI 1640 supplemented with 10% FCS, 4 mM glutamine, 100 units/ml penicillin G, and […] streptomycin sulfate. All tissue culture reagents were obtained from Life Technologies Inc. (Life Technologies, Inc., Gaithersburg, Md.). Cell lines were cultivated for a minimum of two passages after thawing prior to experimentation.
(§2) The cytotoxicity of the compounds were tested against human ALL cell lines using MTT assays (Roche Molecular Biochemicals, Indianapolis, Ind.), as described previously R. K. Narla et al., 1998, Clin Cancer Res 4:1405-14). Briefly, exponentially growing tumor cells were seeded into a 96-well plate at a density of 4×10^4 cells/well and incubated in medium containing the cinchona alkaloid compounds at concentrations ranging from 0.7 to 100 μM for 48 h at 37° C. in a humidified 5% CO2 atmosphere. To each well, 10 μL of MTT (final concentration, 0.5 mg/ml) was added, and the plates were incubated at 37° C. for 4 h to allow MTT to form formazan crystals by reacting with metabolically active cells. The formazan crystals were solubilized overnight at 37° C. in a solution containing 10% SDS and 0.01 M HCl. The absorbance of each well was measured in a microplate reader (Labsystems) at 540 nm and a reference wavelength of 690 nm. To translate the A540 values into the number of live cells in each well, the A540 values were compared to those on standard A540 versus cell number curves generated for each cell line. The percentage of survival was calculated using the formula: % survival=[Live cell number (test)/Live cell number (control)]×100. The IC50 values were calculated by nonlinear regression analysis using the graphed Prism Software version 2.0 (GraphPad Software, Inc., San Diego, Calif.).

[3] = test system: MOLT-3; assay: MTT cytotoxicity assay, MOLT-3; assay type: cell-based, human; details: 48 h, read-out: IC50 against MOLT-3
Protocol: as §1, §2

C=CC1CN2CCC1CC2C(Oc1cc(OC(c2ccnc3ccccc23)C2CC3CCN2CC3C=C)nc(OC(c2ccnc3ccccc23)C2CC3CCN2CC3C=C)n1)c1ccnc2ccccc12 (stereo not shown) [AP-1, 2,4,6-Tri(9-O-cinchoninyl)pyrimidine]
fold-growth in 48 hours (day 18 size: day 16 size) ([1]; 1st experiment, 5 mg/kg i.p. twice daily): significantly reduced the rapid growth rate of the LL2 tumors
average tumor volume versus vehicle ([1]; 1st experiment, 5 mg/kg i.p. twice daily, day 16 to day 20): remained significantly smaller than the average tumor volume in vehicle-treated control mice
average tumor volume versus vehicle ([1]; 2nd experiment, 4 mg/kg i.p. twice daily, day 10 and day 14): remained significantly smaller than the average tumor volume in vehicle-treated control mice
average tumor volume versus vehicle ([1]; 3rd experiment, 5 mg/kg i.p. twice daily, day 13 to day 29): remained significantly smaller than the average tumor volume in vehicle-treated control mice
IC50 [2]: 3.4 µM
IC50 [3]: 6.7 µM

CCC1CN2CCC1CC2C(Oc1cc(OC(c2ccnc3ccc(OC)cc23)C2CC3CCN2CC3CC)nc(OC(c2ccnc3ccc(OC)cc23)C2CC3CCN2CC3CC)n1)c1ccnc2ccc(OC)cc12 (stereo not shown) [AP-8, 2,4,6-Tri (9-O-dihydroquinidinyl)pyrimidine]
average tumor volume versus vehicle ([1]; 2 mg/kg i.p. twice daily, day 14 to day 25): remained significantly smaller than the average tumor volume in vehicle-treated control mice
IC50 [2]: 3.7 µM
IC50 [3]: 5.2 µM

2,4,6-Tri (9-O-dihydrocinchoninyl)pyrimidine [AP-5]
IC50 [2]: 1.7 µM

Reference: patent US11066421B1, “Synthetic cinchona alkaloids against cancer” (Ares Pharmaceuticals, LLC, priority 2021, dated 2021)
